Publication PMC3038857, “Using Nuclear Receptor Activity to Stratify Hepatocarcinogens” (PLoS ONE, 2011)
Read-outs that look alike come from different tables or passages of the source.

Key:
[1] = test system: CYP3A4; experiment: CLZD_CYP3A4: Change in expression of CYP3A4 (primary human hepatocytes); assay type: cell-based; settings: 24 hr
Experimental: (§1) This is a collection of multiplexed gene expression assays focused on Phase I and II xenobiotic metabolizing enzymes and transporters. Human primary cell cultures were treated with chemicals at 5 concentrations (0.004-40 [drawing 42] M) for 6, 24 and 48 hr. Concentration- and time-response profiles of chemicals were measured by the expression of key nuclear receptor target genes, activities of CYP1A enzymes (EROD), and cell morphology. Fourteen gene targets were monitored by quantitative nuclease protection assay including: six representative cytochrome P-450 genes, four hepatic transporters, three Phase II conjugating enzymes, and one endogenous metabolism gene involved in cholesterol synthesis. The target genes associated with nuclear receptor pathways are as follows: [drawing 43] and [drawing 44] with [drawing 45]; [drawing 46] , [drawing 47] , [drawing 48] , [drawing 49] , [drawing 50] and [drawing 51] with [drawing 52]; [drawing 53] , [drawing 54] , [drawing 55] and [drawing 56] with [drawing 57]; [drawing 58] with [drawing 59]; and [drawing 60] with [drawing 61] . Assays were run in primary human hepatocyte cultures by CellzDirect Invitrogen Inc. (Durham, NC), in collaboration with EPA.
(§2) Multiplexed Gene Expression in Human Primary Hepatocytes: This is a collection of multiplexed gene expression assays focused on Phase I and II metabolic enzymes and transporters. […] Fourteen gene targets were monitored by quantitative nuclease protection assay: six representative cytochrome P450 genes, four hepatic transporters, three Phase II conjugating enzymes, and one endogenous metabolism gene involved in cholesterol synthesis. Cells were exposed at 5 concentrations (0.004-40 µM) for 6, 24 or 48 hr. Gene targets are sentinels for five nuclear receptor signaling pathways: AhR, CAR, PXR, FXR, and PPARα. All gene are associated with nuclear receptor pathways: CYP1A1 and CYP1A2 with AHR; ABCB1, ABCG2, CYP2B6, CYP2C9, CYP2C19 and UGT1A1 with CAR; CYP3A4, GSTA2, SLCO1B1 and SULT2A1 with PXR; HMGCS2 with PPARA; and ABCB11 with FXR. […] Detailed description of the methods, data and analysis methods for this dataset will be presented in a separate publication.

[2] = test system: Mouse Liver; settings: ref ToxRefDB, cited from earlier work
[3] = test system: Rat Liver; settings: ref ToxRefDB, cited from earlier work
[4] = test system: Rat Liver; settings: ref ToxRefDB, cited from earlier work; remark: listed apart in the source
[5] = test system: Mouse Liver; settings: ref ToxRefDB, cited from earlier work; remark: listed apart in the source
[6] = biological target: T1, PXR (NR1I2) (Homo sapiens, UniProt O75469); experiment: ATG_PXRE_CIS: Factorial reporter gene assay (HepG2); assay type: cell-based; design: endogenous in cells; host or cells: HepG2
T1 sequence (O75469 1-434): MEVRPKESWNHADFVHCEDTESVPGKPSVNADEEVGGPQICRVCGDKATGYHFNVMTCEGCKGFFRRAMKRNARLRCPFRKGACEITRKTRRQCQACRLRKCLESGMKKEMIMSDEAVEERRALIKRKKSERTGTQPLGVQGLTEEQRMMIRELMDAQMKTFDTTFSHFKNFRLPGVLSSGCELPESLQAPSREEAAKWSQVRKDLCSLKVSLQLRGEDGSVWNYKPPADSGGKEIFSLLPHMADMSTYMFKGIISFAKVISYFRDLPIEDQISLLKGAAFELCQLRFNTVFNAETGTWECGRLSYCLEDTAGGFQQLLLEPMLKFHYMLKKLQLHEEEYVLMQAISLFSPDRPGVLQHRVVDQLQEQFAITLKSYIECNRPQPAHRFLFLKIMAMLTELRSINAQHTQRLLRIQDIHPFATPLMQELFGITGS
Experimental: (§3) A multiple reporter transcription unit (MRTU) library consisting of 48 transcription factor binding sites was transfected into the HepG2 human liver hepatoma cell line. In addition to the cis-acting reporter genes (CIS), a modification of the approach was used to generate a trans-system (TRANS) with a mammalian one-hybrid assay consisting of an additional 25 MRTU library reporting the activity of nuclear receptor super-family members. […] These assays were performed by Attagene Inc. (Morrisville NC) under contract to EPA.
(§4) In addition to the cis-acting reporter genes (CIS), a modification of the approach was used to generate a trans-system (TRANS) with a mammalian one-hybrid assay consisting of an additional 25 MRTU library reporting the activity of nuclear receptor super-family members. […] Chemicals were then tested in the CIS and TRANS assays at seven concentrations starting at the MTC and followed by three-fold serial dilutions. These assays were performed by Attagene Inc. (Morrisville NC) under contract to EPA. Detailed description of the methods, data and analysis methods for this dataset will be presented in a separate publication.

[7] = test system: Rat Liver; settings: ref ToxRefDB, cited from earlier work; remark: listed apart in the source
[8] = test system: CYP2B6; experiment: CLZD_CYP2B6: Change in expression of CYP2B6 (primary human hepatocytes); assay type: cell-based; settings: 24 hr
Experimental: as §1, §2

[9] = biological target: T1, PXR (NR1I2); experiment: NVS_NR_hPXR: Human PXR Fluormone PXR (SXR) green (cell-free HTS); assay type: binding
Description: These are a collection of biochemical assays measuring binding constants and enzyme inhibition values. Chemicals were initially screened at a single concentration in duplicate wells at a concentration of 10 [drawing 63] M for cytochrome P-450 assays and 25 [drawing 64] M for all others. […] These assays were run by Caliper Life Sciences (Hanover, MD) under contract to EPA. Short assay descriptions are available at: http://www.caliperls.com/products/contract-research/in-vitro/.
Cell-free HTS Assays: A collection of biochemical assays measuring binding constants and enzyme inhibition values. […] These assays were run by Caliper Life Sciences (Hanover, MD) under contract to EPA. Short assay descriptions are available at http://www.caliperls.com/products/contract-research/in-vitro/. Values for all endpoints were imported into GeneData Screener (Basel, Switzerland) and normalised to solvent controls from the same plate as the tested compounds and expressed as percent of neutral control. Concentration-response curves were fit in GeneData Screener (Basel, Switzerland) Condeseo module using the Hill equation and AC50 values were determined. […] Detailed description of the methods, data and analysis methods for this dataset are described in a separate publication.

[10] = test system: CYP1A1; experiment: CLZD_CYP1A1: Change in expression of CYP1A1 (primary human hepatocytes); assay type: cell-based; settings: 24 hr
Experimental: as §1, §2

[11] = biological target: T2, PPARG (peroxisome proliferator-activated receptor gamma) (Homo sapiens, UniProt P37231); experiment: ATG_PPARg_TRANS: Factorial reporter gene assay (HepG2); assay type: cell-based
T2 construct: expressed in transfected cells; host or cells: HepG2
T2 sequence (P37231 1-505): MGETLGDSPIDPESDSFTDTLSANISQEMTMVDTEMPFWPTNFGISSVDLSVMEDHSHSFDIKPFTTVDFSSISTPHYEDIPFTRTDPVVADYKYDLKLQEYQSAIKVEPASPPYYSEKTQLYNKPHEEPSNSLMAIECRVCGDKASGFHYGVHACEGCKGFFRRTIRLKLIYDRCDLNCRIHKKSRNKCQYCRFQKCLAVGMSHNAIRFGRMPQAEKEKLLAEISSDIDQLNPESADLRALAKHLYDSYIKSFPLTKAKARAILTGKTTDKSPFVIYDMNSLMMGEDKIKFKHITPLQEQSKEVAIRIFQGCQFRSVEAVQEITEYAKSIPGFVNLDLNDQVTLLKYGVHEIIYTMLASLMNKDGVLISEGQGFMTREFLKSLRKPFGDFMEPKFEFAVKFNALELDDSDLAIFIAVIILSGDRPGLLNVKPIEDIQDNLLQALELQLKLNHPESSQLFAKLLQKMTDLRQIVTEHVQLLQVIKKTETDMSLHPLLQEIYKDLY
Experimental: as §3, §4

[12] = test system: CYP1A2; experiment: CLZD_CYP1A2: Change in expression of CYP1A2 (primary human hepatocytes); assay type: cell-based; settings: 24 hr
Experimental: as §1, §2

[13] = biological target: T1, PXR (NR1I2); experiment: ATG_PXR_TRANS: Factorial reporter gene assay (HepG2); assay type: cell-based; design: endogenous in cells; host or cells: HepG2
Experimental: as §3, §4

[14] = mouse chronic study, liver, coded 6 / Inf, code not explained in table
[15] = rat chronic study, liver, coded 6 / 0, code not explained in table

Compound	CLZD_CYP3A4_24 [1]	CHR_Rat_Liver_1_AnyLesion ([3]; chronic study, rat liver)	CHR_Rat_Liver_2_PreneoplasticLesion ([4]; chronic study, rat liver)	ATG_PXRE_CIS ([6]; HepG2 reporter)	CHR_Rat_Liver_3_NeoplasticLesion ([7]; chronic study, rat liver)	CLZD_CYP2B6_24 [8]	ATG_PXRE_CIS ([6]; HepG2)	further results
CCC/C(=N\OCC)C1=C(O)CC(CC(C)SCC)CC1=O (centres unmarked) [r283]	4.556	6	6	4.62	0	5.082		CHR_Mouse_Liver_1_AnyLesion ([2]; chronic study, mouse liver): 6; CHR_Mouse_Liver_2_PreneoplasticLesion ([5]; chronic study, mouse liver): 6
COc1nc(C)nc(NC(=O)NS(=O)(=O)c2ccccc2CCC(F)(F)F)n1 [r268]		0	0	4.509	0			CHR_Mouse_Liver_1_AnyLesion ([2]; chronic study, mouse liver): 6; NVS_NR_hPXR [9]: 4.469
COc1nc(C)nc(NC(=O)NS(=O)(=O)c2ccccc2CCC(F)(F)F)n1 [r267]	5.396	0	0	4.328	0	5.398		CLZD_CYP1A1_24 [10]: 5.399; CHR_Mouse_Liver_1_AnyLesion ([2]; chronic study, mouse liver): 6; NVS_NR_hPXR [9]: 4.423
COC(=O)c1c(C(F)F)nc(C(F)(F)F)c(C2=NCCS2)c1CC(C)C [chemical 297]								CHR_Mouse_Liver_1_AnyLesion [2, 14]: 6; CHR_Rat_Liver_1_AnyLesion [3, 15]: 6; CHR_Rat_Liver_2_PreneoplasticLesion [4, 15]: 0; CHR_Mouse_Liver_2_PreneoplasticLesion [5, 14]: 6; CHR_Rat_Liver_3_NeoplasticLesion [7, 15]: 0
COc1nc(C)nc(NC(=O)NS(=O)(=O)c2ccccc2CCC(F)(F)F)n1 [r266]	5.037	0	0	4.377	0	5.694		CHR_Mouse_Liver_1_AnyLesion ([2]; chronic study, mouse liver): 6
CCNc1nc(Cl)nc(NCC)n1 [r284]		6	6	4.456	6	4.983		CLZD_CYP1A1_24 [10]: 5.018; ATG_PPARg_TRANS ([11]; HepG2 reporter): 4.398; CLZD_CYP1A2_24 [12]: 5.016
CC(COc1ccc(Oc2ccccc2)cc1)Oc1ccccn1 (centres unmarked) [r274]	5.096	0	0	4.886	0	5.377		ATG_PPARg_TRANS ([11]; HepG2 reporter): 4.42
O=C(Nc1ccccc1)Nc1cnns1 [chemical 298]								CHR_Mouse_Liver_1_AnyLesion [2, 14]: 6; CHR_Rat_Liver_1_AnyLesion [3, 15]: 0; CHR_Rat_Liver_2_PreneoplasticLesion [4, 15]: 0; CHR_Mouse_Liver_2_PreneoplasticLesion [5, 14]: 6; CHR_Rat_Liver_3_NeoplasticLesion [7, 15]: 0
CCSC(=O)N1CCCCCC1 [row 214]							4.602	CHR_Rat_Liver_1_AnyLesion ([3]; chronic rat study, liver): 0; ATG_PXR_TRANS ([13]; HepG2): 4.208; CHR_Rat_Liver_2_PreneoplasticLesion ([4]; chronic rat study, liver): 0; CHR_Rat_Liver_3_NeoplasticLesion ([7]; chronic rat study, liver): 0
COc1nc(C)nc(NC(=O)NS(=O)(=O)c2ccccc2OCCCl)n1 [chemical 307]								CHR_Mouse_Liver_1_AnyLesion [2, 14]: 6; CHR_Rat_Liver_1_AnyLesion [3, 15]: 0; CHR_Rat_Liver_2_PreneoplasticLesion [4, 15]: 0; CHR_Mouse_Liver_2_PreneoplasticLesion [5, 14]: 6; CHR_Rat_Liver_3_NeoplasticLesion [7, 15]: 0
N#CSCSC#N [row 206]						5.076	5.699	NVS_NR_hPXR [9]: 5.324
CCCOC/C(=N\c1ccc(Cl)cc1C(F)(F)F)n1ccnc1 [chemical 315]								CHR_Mouse_Liver_1_AnyLesion [2, 14]: 6; CHR_Rat_Liver_1_AnyLesion [3, 15]: 6; CHR_Rat_Liver_2_PreneoplasticLesion [4, 15]: 6; CHR_Mouse_Liver_2_PreneoplasticLesion [5, 14]: 6; CHR_Rat_Liver_3_NeoplasticLesion [7, 15]: 0
COc1cnc(OC)n2nc(NS(=O)(=O)c3c(OCC(F)F)cccc3C(F)(F)F)nc12 [r239]	4.931					4.844	4.585	CHR_Rat_Liver_1_AnyLesion ([3]; rat, chronic study): 6; CHR_Rat_Liver_2_PreneoplasticLesion ([4]; rat, chronic study): 0; CHR_Rat_Liver_3_NeoplasticLesion ([7]; rat, chronic study): 0
Cc1nc(N(C)C)nc(OC(=O)N(C)C)c1C [r247]						5.267	4.301	CLZD_CYP1A2_24 [12]: 5.15
Cc1nn(-c2cc(NS(C)(=O)=O)c(Cl)cc2Cl)c(=O)n1C(F)F [r287]	5.471	0	0	4.409	0	5.329		CHR_Mouse_Liver_1_AnyLesion ([2]; chronic study, mouse liver): 6; ATG_PXR_TRANS ([13]; HepG2 reporter): 4.469; ATG_PPARg_TRANS ([11]; HepG2 reporter): 4.444
O=C(Nc1ccc([N+](=O)[O-])cc1Cl)c1cc(Cl)ccc1O [row 220]							6.367	ATG_PPARg_TRANS ([11]; HepG2): 6.252
COc1nc(NC(C)C)nc(NC(C)C)n1 [r255]	5.515					4.907	4.553	CLZD_CYP1A1_24 [10]: 5.078; CHR_Mouse_Liver_1_AnyLesion ([2]; mouse, chronic study): 6; CHR_Rat_Liver_1_AnyLesion ([3]; rat, chronic study): 0; CHR_Rat_Liver_2_PreneoplasticLesion ([4]; rat, chronic study): 0; CHR_Rat_Liver_3_NeoplasticLesion ([7]; rat, chronic study): 0
